Assay results reported in patent US8772511B2, “Azabicyclic carbamates and their use as alpha-7 nicotinic acetylcholine receptor agonists” (Bayer Intellectual Property GmbH, priority 2002, dated 2014).
pKi: −log10 of the molar value. Where a name gives a salt, the structure may show the parent alone. Read-outs that look alike come from different tables or passages of the source.

Columns and labels:
[1] = target: recombinant human 5-HT3 receptor (Homo sapiens (Human), UniProt P46098); assay: Affinity for 5-HT3 receptors through inhibition of [3H]GR65630 binding
Sequence of recombinant human 5-HT3 receptor (P46098 24-478): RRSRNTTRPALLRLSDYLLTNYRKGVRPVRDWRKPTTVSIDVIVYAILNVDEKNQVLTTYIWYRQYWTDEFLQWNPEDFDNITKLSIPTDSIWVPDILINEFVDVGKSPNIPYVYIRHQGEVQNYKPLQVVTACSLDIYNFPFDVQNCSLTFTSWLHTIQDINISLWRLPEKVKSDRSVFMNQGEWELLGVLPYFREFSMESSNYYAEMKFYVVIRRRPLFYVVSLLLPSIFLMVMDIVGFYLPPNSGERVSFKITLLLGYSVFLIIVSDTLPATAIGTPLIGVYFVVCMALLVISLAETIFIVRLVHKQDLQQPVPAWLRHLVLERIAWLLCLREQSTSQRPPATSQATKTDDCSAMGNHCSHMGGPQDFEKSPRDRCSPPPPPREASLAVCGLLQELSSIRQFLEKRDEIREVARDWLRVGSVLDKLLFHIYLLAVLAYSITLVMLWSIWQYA
Method: 2. Determination of the Affinity of Test Substances for 5-HT3 Receptors Through Inhibition of [^3H]GR65630 Binding
Membranes from HEK293 cells which express recombinant human 5-HT3 receptor (RB-HS3, Receptor Biology, Inc., MD, USA) are diluted in accordance with the manufacturer's instructions in incubation buffer (50 mM Iris base, pH 7.4, 5 mM MgCl2, 0.5 mM EDTA, 0.1% (w/v) ascorbic acid, 10 μM pargyline and incubated in a volume of 200 μl (amount of membrane protein 3 μg) in the presence of 0.5 nM of the selective 5-HT3 receptor radio ligand [^3H]-GR65630 (NET 1011, Du Pont) and various concentrations of the test substance at 21° C. for 60 min. The nonspecific binding is determined by incubation in the presence of 100 μM 5-HT (5-hydroxytryptamine). The incubation is stopped by filtering through type A/E glass fiber filters (Gelman Sciences) or GF/B filters (Whatman) which have previously been placed in 0.3% (v/v) polyethyleneimine (PEI) for at least 1 h. The filters are washed three times with 3 ml of washing buffer (50 mM Tris-HCl, pH 7.4; 4° C.), and the bound radioactivity is determined by scintillation measurement. All the assays are carried out in triplicate. The dissociation constant Ki of the test substance is determined from the IC50 of the compounds (concentration of the test substance at which 50% of the ligand bound to the receptor is displaced), the dissociation constant KD and the concentration L of [^3H]GR65630 (Ki=IC50/(1+L/KD)).

α7 nAChR = α7 nAChR (Rattus norvegicus (Rat), UniProt Q05941); assay: Affinity for α7 nAChR by inhibition of [3H]-methyllycaconitine binding to rat brain membranes
Sequence of α7 nAChR (Q05941 23-502 limits assumed): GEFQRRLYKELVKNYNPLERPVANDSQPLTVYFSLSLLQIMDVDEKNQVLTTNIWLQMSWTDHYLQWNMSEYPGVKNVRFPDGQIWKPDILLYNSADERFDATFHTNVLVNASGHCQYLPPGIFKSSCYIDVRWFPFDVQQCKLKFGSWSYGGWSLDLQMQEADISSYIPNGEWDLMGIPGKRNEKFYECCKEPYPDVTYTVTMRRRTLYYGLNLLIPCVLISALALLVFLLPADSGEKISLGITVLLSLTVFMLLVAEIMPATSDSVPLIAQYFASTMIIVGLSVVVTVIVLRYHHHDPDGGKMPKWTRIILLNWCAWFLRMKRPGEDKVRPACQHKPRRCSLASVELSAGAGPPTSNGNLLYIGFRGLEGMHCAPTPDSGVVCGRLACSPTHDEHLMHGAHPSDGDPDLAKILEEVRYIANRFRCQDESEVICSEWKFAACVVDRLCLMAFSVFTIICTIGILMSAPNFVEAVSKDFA
Method: 1. Determination of the Affinity of Test Substances for α7 nAChR by Inhibition of [^3H]-Methyllycaconitine Binding to Rat Brain Membranes
The [^3H]-methyllycaconitine binding assay is a modification of the method described by Davies et al. in Neuropharmacol. 1999, 38, 679-690.
Rat brain tissue (hippocampus or whole brain) is homogenized in aqueous homogenization buffer (10% w/v, 0.32 M sucrose, 1 mM EDTA, 0.1 mM phenylmethylsulfonyl fluoride (PMSF), 0.01% (w/v) NaN3, pH 7.4, 4° C.) at 600 rpm in a glass homogenizer. The homogenate is centrifuged (1000×g, 4° C., 10 min) and the supernatant is removed. The pellet is resuspended (20% w/v) and the suspension is centrifuged (1000×g, 4° C., 10 min). The two supernatants are combined and centrifuged (15 000×g, 4° C., 30 min). The pellet obtained in this way is referred to as the P2 fraction.
The P2 pellet is suspended in binding buffer (50 mM Tris-HCl, 1 mM MgCl2, 120 mM NaCl, 5 mM KCl, 2 mM CaCl2, pH 7.4), and the suspension is centrifuged (15 000×g, 4° C., 30 min), twice.
The residue is resuspended in binding buffer to a concentration of […] and incubated in a volume of 250 μl (amount of membrane protein 0.4 mg) in the presence of 2 nM [3H]-methyllyeaconitine, 0.1% (w/v) BSA (bovine serum albumin) and various concentrations of the test substance at 21° C. for 60 min.
Incubation is then carried out in the presence of 1 μM α-bungarotoxin or 100 μM nicotine or 10 μM MLA (methyllycaconitine). The incubation is stopped by adding 4 ml of PBS (20 mM Na2HPO4, 5 mM KH2PO4, 150 mM NaCl, pH 7.4, 4° C.) and filtering through type A/E glass fiber filters (Gelman Sciences) which have previously been placed in 0.3% (v/v) polyethyleneimine (PEI) for 3 h. The filters are washed twice with 4 ml of PBS (4° C.), and the bound radioactivity is determined by scintillation measurement. All the assays are carried out in triplicate. The dissociation constant Ki of the test substance was determined from the IC50 of the compounds (concentration of the test substance at which 50% of the ligand bound to the receptor is displaced), the dissociation constant KD and the concentration L of [^3H]-methyllycaconitine using the equation Ki=IC50/(1+L/KD).

[2] = [3H]GR65630 displacement, membranes from HEK293 cells expressing human 5-HT3 receptor, read-out: Ki
[3] = [3H]-methyllycaconitine displacement, rat brain membranes, read-out: Ki

| SMILES | pKi [1, 2] | pKi (α7 nAChR) | pKi (α7 nAChR; [3]) | pKi [1] |
| --- | --- | --- | --- | --- |
| O=C(Nc1ccc2cc(C(=O)N[C@H]3CN4CCC3CC4)sc2c1)Nc1c(F)cccc1F [Example 11, N-[(3R)-1-Azabicyclo[2.2.2]oct-3-yl]-6-({[(2,6-difluorophenyl)amino]carbonyl}-amino)-1-benzothiophene-2-carboxamide hydrochloride] | 5.26 | 9.40 |  |  |
| COc1ccc(NC(=O)Nc2ccc3cc(C(=O)N[C@H]4CN5CCC4CC5)sc3c2)cc1 [Example 4, N-[(3R)-1-Azabicyclo[2.2.2]oct-3-yl]-6-({[(4-methoxyphenyl)amino]carbonyl}-amino)-1-benzothiophene-2-carboxamide hydrochloride] |  |  | 8.68 |  |
| O=C(NCCc1ccccc1)Nc1ccc2cc(C(=O)N[C@H]3CN4CCC3CC4)sc2c1 [Example 5, N-[(3R)-1-Azabicyclo[2.2.2]oct-3-yl]-6-({[(2-phenylethyl)amino]carbonyl}amino)-1-benzothiophene-2-carboxamide hydrochloride] |  |  | 7.66 | 4.92 |
| COc1cc(NC(=O)Nc2ccc3cc(C(=O)N[C@H]4CN5CCC4CC5)sc3c2)cc(OC)c1OC [Example 14, N-[(3R)-1-Azabicyclo[2.2.2]oct-3-yl]-6-({[(3,4,5-trimethoxyphenyl)amino]-carbonyl}amino)-1-benzothiophene-2-carboxamide hydrochloride] |  |  |  | 5.16 |
| N#Cc1cccc(NC(=O)Nc2ccc3cc(C(=O)N[C@H]4CN5CCC4CC5)sc3c2)c1 [Example 6, N-[(3R)-1-Azabicyclo[2.2.2]oct-3-yl]-6-({[(3-cyanophenyl)amino]carbonyl}amino)-1-benzothiophene-2-carboxamide hydrochloride] | 5.77 | 8.10 |  |  |
| O=C(Nc1ccccc1)Nc1cccc2cc(C(=O)N[C@H]3CN4CCC3CC4)sc12 [Example 21, 7-[(Anilinocarbonyl)amino]-N-[(3R)-1-azabicyclo[2.2.2]oct-3-yl]-1-benzothiophene-2-carboxamide hydrochloride] | 5.80 | 7.82 |  |  |
| COc1cccc(NC(=O)Nc2ccc3cc(C(=O)N[C@H]4CN5CCC4CC5)sc3c2)c1 [Example 16, N-[(3R)-1-Azabicyclo[2.2.2]oct-3-yl]-6-[({[3-methoxyphenyl]amino}carbonyl)-amino]-1-benzothiophene-2-carboxamide hydrochloride] | 5.68 | 8.37 |  |  |
| COc1ccc(NC(=O)Nc2ccc3cc(C(=O)N[C@H]4CN5CCC4CC5)oc3c2)cc1 [Example 22, N-[(3R)-1-Azabicyclo[2.2.2]oct-3-yl]-6-({[(4-methoxyphenyl)amino]carbonyl}-amino)-1-benzofuran-2-carboxamide hydrochloride] |  |  | > 9.00 |  |
